Source: paper PMC5033074 (Nature chemical biology, 2016)
Where two headings read alike, the source gives them in different places. One block for each molecule: values may come before it.

Tests used:
[1] = tested on: Pol II CTD Ser2 phosphorylation; conditions: cited from earlier work
ERK1 = ERK1 (Homo sapiens, UniProt P27361); experiment: kinase assay, control kinase; type: biochemical
CDK13 = CDK13 (Homo sapiens, UniProt Q14004); experiment: Ambit in vitro binding profiling
CDK12-cyclin K complexes = CDK12-cyclin K complexes (Homo sapiens, UniProt Q9NYV4); experiment: target-engagement assay; type: cell-based; conditions: competition with lysate-introduced bioTHZ1
[2] = tested on: Jurkat T-cell acute lymphoblastic leukemia cells; experiment: Jurkat proliferation assay; type: cell-based, human; conditions: for antiproliferative activity in Jurkat cells: 72 hrs, CellTiter Glo
Jurkat cells = experiment: Annexin V / propidium iodide flow cytometry; type: cell-based, human
[3] = tested on: steady-state mRNA levels in Jurkat cells; experiment: gene expression analysis; type: cell-based, human; conditions: for effect on steady-state mRNA levels: 500 nM, 6h
[4] = tested on: Pol II CTD Ser2 phosphorylation; experiment: Pol II CTD phosphorylation immunoblot; type: cell-based, human; conditions: Jurkat cells, 6 hrs
[5] = tested on: pSer2 Pol II occupancy in Jurkat cells; experiment: pSer2 Pol II ChIP-seq; type: cell-based, human
HAP1 cells = experiment: HAP1 WT vs CDK12 C1039S proliferation assay; type: cell-based, human; conditions: 72 hours
CDK12- cyclin K complex = CDK12- cyclin K complex (Homo sapiens, UniProt Q9NYV4); experiment: mass spectrometry of protein-inhibitor complex; type: binding; conditions: 17 µM complex, 25 µM compound, overnight at 4°C
other 211 kinases = experiment: KiNativ intracellular kinase profiling; conditions: ATP-desthiobiotin probe
CDK12-cyclin K = CDK12-cyclin K (Homo sapiens, UniProt Q9NYV4); type: biochemical; conditions: relative to THZ531
CDK13-cyclin K = CDK13-cyclin K (Homo sapiens, UniProt Q14004); experiment: radiometric in vitro kinase assay; type: biochemical; conditions: relative to THZ531
CDK7-cyclin H-MAT1 = CDK7-cyclin H-MAT1 (Homo sapiens, UniProt P50613); type: biochemical; conditions: compared with THZ531
CDK9-cyclin T1 = CDK9-cyclin T1 (Homo sapiens, UniProt P50750); experiment: radiometric in vitro kinase assay; type: biochemical; conditions: compared with THZ531
[6] = tested on: CDK12-cyclin K, CDK13-cyclin K and CDK7-cyclin H complexes; conditions: 1 µM biotinylated probe
[7] = target: human CDK12 residues 715-1052 (human, UniProt Q9NYV4-1 715-1052, THZ531 covalently bound to Cys-1039; phosphorylated (site not stated)); experiment: crystal structure
Chain of human CDK12 residues 715-1052 (Q9NYV4 715-1052): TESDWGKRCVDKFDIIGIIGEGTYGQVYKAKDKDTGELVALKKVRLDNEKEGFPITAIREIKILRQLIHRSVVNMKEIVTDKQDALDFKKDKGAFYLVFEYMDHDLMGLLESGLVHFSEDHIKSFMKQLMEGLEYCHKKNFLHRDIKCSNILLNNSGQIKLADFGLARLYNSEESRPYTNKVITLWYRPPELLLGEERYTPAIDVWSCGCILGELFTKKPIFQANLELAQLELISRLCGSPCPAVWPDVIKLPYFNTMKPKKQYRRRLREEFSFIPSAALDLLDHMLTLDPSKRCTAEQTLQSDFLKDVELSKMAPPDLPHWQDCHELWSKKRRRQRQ

Chain of CDK13-cyclin K (Q14004 694-1039 limits assumed): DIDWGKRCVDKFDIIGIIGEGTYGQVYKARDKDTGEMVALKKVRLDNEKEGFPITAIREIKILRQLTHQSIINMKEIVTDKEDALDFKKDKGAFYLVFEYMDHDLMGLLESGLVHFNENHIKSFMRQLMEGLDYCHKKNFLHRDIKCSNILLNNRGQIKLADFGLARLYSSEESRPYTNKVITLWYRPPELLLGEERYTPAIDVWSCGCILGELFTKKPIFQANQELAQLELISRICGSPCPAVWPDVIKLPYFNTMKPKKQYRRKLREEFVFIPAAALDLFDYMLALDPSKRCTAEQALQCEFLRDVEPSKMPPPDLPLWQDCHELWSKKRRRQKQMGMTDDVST
Chain of CDK13-cyclin K (O75909 1-267 partner limits assumed): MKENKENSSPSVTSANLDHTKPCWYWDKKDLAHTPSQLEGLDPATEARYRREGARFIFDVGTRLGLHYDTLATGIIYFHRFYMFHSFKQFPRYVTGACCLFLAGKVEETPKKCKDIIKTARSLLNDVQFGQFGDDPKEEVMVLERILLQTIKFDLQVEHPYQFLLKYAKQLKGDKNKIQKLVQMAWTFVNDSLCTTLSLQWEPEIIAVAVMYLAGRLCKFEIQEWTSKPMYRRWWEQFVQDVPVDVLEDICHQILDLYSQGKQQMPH
Chain of CDK12-cyclin K (Q9NYV4 696-1082 limits assumed): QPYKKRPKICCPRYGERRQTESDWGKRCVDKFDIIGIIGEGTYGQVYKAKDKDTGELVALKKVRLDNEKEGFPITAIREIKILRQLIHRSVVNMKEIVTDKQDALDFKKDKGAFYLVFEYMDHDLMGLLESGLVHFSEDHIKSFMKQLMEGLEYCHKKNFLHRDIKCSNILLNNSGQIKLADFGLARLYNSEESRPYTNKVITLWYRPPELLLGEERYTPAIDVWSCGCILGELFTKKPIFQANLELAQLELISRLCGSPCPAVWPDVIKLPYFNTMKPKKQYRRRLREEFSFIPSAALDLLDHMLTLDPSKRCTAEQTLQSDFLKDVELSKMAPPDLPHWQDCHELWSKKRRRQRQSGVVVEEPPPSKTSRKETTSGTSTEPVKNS
Chain of CDK12-cyclin K (O75909 1-267 partner limits assumed): as the sequence (O75909 1-267 partner limits assumed) above
Chain of CDK9-cyclin T1 (P50750 whole entry): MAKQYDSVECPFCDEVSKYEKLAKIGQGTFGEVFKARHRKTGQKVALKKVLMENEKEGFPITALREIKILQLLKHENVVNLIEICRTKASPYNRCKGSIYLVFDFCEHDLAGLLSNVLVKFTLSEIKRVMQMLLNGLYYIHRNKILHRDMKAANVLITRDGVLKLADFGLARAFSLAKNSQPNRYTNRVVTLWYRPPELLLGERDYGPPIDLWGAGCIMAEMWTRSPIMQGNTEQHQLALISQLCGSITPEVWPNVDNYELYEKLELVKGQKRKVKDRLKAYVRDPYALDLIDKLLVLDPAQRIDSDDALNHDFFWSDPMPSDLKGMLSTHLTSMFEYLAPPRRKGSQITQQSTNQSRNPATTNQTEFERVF
Chain of CDK9-cyclin T1 (O60563 1-272 partner limits assumed): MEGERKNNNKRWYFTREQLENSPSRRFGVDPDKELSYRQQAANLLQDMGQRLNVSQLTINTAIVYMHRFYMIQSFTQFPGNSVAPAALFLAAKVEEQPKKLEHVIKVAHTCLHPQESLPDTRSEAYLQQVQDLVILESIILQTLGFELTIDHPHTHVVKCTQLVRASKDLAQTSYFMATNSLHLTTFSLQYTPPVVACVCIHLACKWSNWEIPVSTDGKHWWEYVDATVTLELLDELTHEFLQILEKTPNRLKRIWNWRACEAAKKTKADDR
Chain of CDK7-cyclin H-MAT1 (P50613 whole entry): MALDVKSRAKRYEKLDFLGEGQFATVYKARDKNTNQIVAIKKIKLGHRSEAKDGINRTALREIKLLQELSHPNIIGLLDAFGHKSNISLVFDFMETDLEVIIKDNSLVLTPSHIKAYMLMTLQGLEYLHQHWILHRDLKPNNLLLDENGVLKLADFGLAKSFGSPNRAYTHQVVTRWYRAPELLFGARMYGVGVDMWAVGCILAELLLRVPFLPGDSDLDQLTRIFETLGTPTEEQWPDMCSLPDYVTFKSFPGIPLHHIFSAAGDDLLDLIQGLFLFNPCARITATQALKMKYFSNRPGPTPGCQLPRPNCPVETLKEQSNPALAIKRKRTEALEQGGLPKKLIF
Chain of CDK7-cyclin H-MAT1 (P51946 whole entry partner): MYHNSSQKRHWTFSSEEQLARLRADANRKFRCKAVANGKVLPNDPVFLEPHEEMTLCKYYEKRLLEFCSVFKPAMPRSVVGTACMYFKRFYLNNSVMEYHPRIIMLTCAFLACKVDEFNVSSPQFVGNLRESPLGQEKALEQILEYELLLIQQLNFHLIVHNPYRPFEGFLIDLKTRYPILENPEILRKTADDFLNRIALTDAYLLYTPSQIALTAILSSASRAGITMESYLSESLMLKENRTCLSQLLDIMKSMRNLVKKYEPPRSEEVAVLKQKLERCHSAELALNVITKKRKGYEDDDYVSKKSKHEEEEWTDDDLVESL
Chain of CDK7-cyclin H-MAT1 (P51948 whole entry partner): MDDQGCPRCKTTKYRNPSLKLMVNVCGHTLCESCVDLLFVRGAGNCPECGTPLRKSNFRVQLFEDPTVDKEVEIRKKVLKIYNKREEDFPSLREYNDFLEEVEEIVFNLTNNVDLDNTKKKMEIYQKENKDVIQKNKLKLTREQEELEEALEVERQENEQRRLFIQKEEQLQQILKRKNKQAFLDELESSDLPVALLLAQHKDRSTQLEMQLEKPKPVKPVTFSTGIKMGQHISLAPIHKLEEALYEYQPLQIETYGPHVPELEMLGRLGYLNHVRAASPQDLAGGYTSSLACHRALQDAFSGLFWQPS
Chain of CDK13 (Q14004 whole entry): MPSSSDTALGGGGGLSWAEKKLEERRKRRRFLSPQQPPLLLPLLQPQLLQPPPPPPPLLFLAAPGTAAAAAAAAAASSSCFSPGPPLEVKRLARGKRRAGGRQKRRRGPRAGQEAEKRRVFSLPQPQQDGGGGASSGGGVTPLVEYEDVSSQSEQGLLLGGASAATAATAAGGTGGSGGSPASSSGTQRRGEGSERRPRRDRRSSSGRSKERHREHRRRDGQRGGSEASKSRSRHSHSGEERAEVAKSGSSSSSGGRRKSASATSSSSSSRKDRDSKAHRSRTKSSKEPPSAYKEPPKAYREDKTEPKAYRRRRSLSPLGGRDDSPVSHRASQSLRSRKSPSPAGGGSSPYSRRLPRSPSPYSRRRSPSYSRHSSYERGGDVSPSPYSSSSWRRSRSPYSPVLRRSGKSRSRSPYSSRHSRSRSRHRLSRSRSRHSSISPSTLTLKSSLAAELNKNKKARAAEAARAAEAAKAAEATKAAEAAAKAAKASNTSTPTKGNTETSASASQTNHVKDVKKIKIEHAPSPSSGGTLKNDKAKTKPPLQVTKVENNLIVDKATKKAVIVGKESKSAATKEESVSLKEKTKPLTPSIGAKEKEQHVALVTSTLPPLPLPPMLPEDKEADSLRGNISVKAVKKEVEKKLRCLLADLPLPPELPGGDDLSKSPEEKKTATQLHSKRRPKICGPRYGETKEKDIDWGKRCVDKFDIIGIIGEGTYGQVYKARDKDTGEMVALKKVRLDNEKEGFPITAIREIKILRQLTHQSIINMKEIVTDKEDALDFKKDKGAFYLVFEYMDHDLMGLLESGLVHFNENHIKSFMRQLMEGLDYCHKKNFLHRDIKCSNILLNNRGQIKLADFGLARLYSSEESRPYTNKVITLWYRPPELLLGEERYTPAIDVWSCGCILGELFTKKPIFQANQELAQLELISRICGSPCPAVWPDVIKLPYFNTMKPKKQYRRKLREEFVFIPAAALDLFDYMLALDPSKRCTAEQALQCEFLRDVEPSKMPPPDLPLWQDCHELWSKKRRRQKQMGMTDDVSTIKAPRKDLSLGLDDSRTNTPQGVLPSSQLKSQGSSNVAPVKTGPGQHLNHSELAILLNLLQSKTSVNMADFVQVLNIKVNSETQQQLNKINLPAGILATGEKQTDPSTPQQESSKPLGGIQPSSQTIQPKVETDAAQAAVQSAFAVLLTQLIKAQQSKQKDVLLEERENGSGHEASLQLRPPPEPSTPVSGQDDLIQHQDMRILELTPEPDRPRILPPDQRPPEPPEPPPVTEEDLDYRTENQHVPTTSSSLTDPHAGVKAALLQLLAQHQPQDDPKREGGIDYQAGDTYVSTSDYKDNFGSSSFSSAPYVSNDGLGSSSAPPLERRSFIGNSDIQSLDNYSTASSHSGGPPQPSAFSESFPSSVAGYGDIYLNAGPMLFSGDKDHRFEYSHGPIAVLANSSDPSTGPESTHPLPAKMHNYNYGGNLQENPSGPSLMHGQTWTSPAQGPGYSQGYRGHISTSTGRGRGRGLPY
Chain of ERK1 (P27361 whole entry, species assumed): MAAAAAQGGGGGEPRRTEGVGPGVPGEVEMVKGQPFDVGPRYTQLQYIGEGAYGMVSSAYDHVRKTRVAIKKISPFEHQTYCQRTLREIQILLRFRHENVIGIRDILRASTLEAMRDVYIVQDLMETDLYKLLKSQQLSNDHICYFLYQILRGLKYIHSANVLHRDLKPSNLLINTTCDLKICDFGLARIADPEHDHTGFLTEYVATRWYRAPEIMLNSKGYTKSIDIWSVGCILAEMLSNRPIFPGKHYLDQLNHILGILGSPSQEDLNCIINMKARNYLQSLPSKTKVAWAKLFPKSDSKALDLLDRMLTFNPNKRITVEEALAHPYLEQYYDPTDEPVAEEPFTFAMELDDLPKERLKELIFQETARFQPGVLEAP
Chain of CDK12- cyclin K complex (Q9NYV4 715-1052, one chain of several): as the sequence (Q9NYV4 715-1052) above

Molecule: CN(C)C/C=C/C(=O)Nc1ccc(C(=O)Nc2cccc(Nc3ncc(Cl)c(-c4c[nH]c5ccccc45)n3)c2)cc1 [THZ1]
- effect on Pol II CTD phosphorylation [1]: complete loss of Pol II CTD phosphorylation

Molecule: CN(C)C/C=C/C(=O)Nc1ccc(C(=O)N2CCC[C@@H](Nc3ncc(Cl)c(-c4c[nH]c5ccccc45)n3)C2)cc1 [THZ531, (R,E)-N-(4-(3-((5-chloro-4-(1H-indol-3-yl)pyrimidin-2-yl)amino)piperidine-1-carbonyl)phenyl)-4-(dimethylamino)but-2-enamide]
- inhibitory effect on ERK1 (ERK1): no appreciable inhibitory effect
- Ambit profiling score of CDK13 (CDK13): among the top scoring kinases
- binding to intracellular CDK12-cyclin K vs CDK7-cyclin H (CDK12-cyclin K complexes): binds intracellular CDK12-cyclin K complexes with higher affinity than CDK7-cyclin H complexes
- IC50 ([2]; Homo sapiens, Jurkat, 72 h, read-out: IC50 Jurkat cell proliferation): 50 nM
- percentage of apoptotic cells over DMSO control (Jurkat cells; 50 nM, time course of the experiment): no increase in the percentage of apoptotic cells
- annexin V-positively stained cells (Jurkat cells; higher doses (above 50 nM), by 72 hrs): 30–40%
- expression of core DDR genes BRCA1, FANCF, ERCC4 ([3]; 50 nM): substantial loss of expression
- effect on Pol II CTD phosphorylation [4]: selectively reduced Ser2 phosphorylation levels without appreciable effect on CTD pSer5/pSer7 levels
- pSer2 ChIP-seq signal ([5]; 50 nM): did not appreciably change pSer2 ChIP-seq signal
- pSer2 ChIP-seq signal ([5]; 500 nM): dramatic decrease in 3’ end –associated pSer2 ChIP-seq signal
- effect of CDK12 C1039S substitution on antiproliferative effect (HAP1 cells): partial restoration of cellular proliferation
- covalent binding to CDK12-cyclin K (CDK12- cyclin K complex): Near complete covalent binding
- labeling of the other 211 kinases (not CDK12 and 13) (other 211 kinases): ≤ 55%

- fold less active on CDK12 than THZ531 (CDK12-cyclin K): 50–100 fold
- fold less active on CDK12 than THZ531 (CDK12-cyclin K; listed as reversible analog): more than 100 fold
- fold less active on CDK13 than THZ531 (CDK13-cyclin K): 50–100 fold
- fold less active on CDK13 than THZ531 (CDK13-cyclin K; listed as reversible analog): more than 100 fold
- inhibition activity on CDK7 (CDK7-cyclin H-MAT1): similarly–low–inhibition activity
- inhibition activity on CDK9 (CDK9-cyclin T1): similarly–low–inhibition activity
Molecule: CN(C)CCCC(=O)Nc1ccc(C(=O)N2CCC[C@@H](Nc3ncc(Cl)c(-c4c[nH]c5ccccc45)n3)C2)cc1 [THZ531R, (R)-N-(4-(3-((5-chloro-4-(1H-indol-3-yl)pyrimidin-2-yl)amino)piperidine-1-carbonyl)phenyl)-4-(dimethylamino)butanamide]
- antiproliferative activity in Jurkat cells [2]: minimal antiproliferative activity
- effect on steady-state mRNA levels [3]: decreased neither Ser2 phosphorylation nor steady-state mRNA levels
- effect on Pol II CTD phosphorylation [4]: decreased neither Ser2 phosphorylation

- inhibition activity on CDK7 (CDK7-cyclin H-MAT1): similarly–low–inhibition activity
- inhibition activity on CDK9 (CDK9-cyclin T1): similarly–low–inhibition activity
Molecule: CN(C)C/C=C/C(=O)Nc1ccc(C(=O)N2CCC[C@H](Nc3ncc(Cl)c(-c4c[nH]c5ccccc45)n3)C2)cc1 [THZ532, (S,E)-N-(4-(3-((5-chloro-4-(1H-indol-3-yl)pyrimidin-2-yl)amino)piperidine-1-carbonyl)phenyl)-4-(dimethylamino)but-2-enamide]
- antiproliferative activity in Jurkat cells [2]: minimal antiproliferative activity
- effect on steady-state mRNA levels [3]: decreased neither Ser2 phosphorylation nor steady-state mRNA levels
- effect on Pol II CTD phosphorylation [4]: decreased neither Ser2 phosphorylation

Molecule: CN(C/C=C/C(=O)Nc1ccc(C(=O)Nc2cccc(Nc3ncc(Cl)c(-c4c[nH]c5ccccc45)n3)c2)cc1)CCCNC(=O)NCCOCCOCCOCCNC(=O)CCCC[C@@H]1SC[C@@H]2NC(=O)N[C@@H]21 [bioTHZ1, reference compound]
- complexes pulled down [6]: pulls down CDK7, CDK12, and 13 complexes

Molecule: CC1NC(=O)NC1CCCCCC(=O)NCCOCCOCCOCCNC(=O)CCN(C)C/C=C/C(=O)Nc1ccc(C(=O)N2CCC[C@@H](Nc3ncc(Cl)c(-c4c[nH]c5ccccc45)n3)C2)cc1 (stereo partly drawn) [bioTHZ531, N-((E)-20-((4-((R)-3-((5-chloro-4-(1H-indol-3-yl)pyrimidin-2-yl)amino)piperidine-1-carbonyl)phenyl)amino)-16-methyl-13,20-dioxo-3,6,9-trioxa-12,16-diazaicos-18-en-1-yl)-6-(5-methyl-2-oxoimidazolidin-4-yl)hexanamide]
- complexes pulled down [6]: pulls down CDK12-cyclin K and CDK13-cyclin K complexes, but not CDK7-cyclin H complexes

- binding result [7]: binds
B1: human cyclin K residues 11-267 (domain or fragment, UniProt O75909 11-267, looked up)
chain: SVTSANLDHTKPCWYWDKKDLAHTPSQLEGLDPATEARYRREGARFIFDVGTRLGLHYDTLATGIIYFHRFYMFHSFKQFPRYVTGACCLFLAGKVEETPKKCKDIIKTARSLLNDVQFGQFGDDPKEEVMVLERILLQTIKFDLQVEHPYQFLLKYAKQLKGDKNKIQKLVQMAWTFVNDSLCTTLSLQWEPEIIAVAVMYLAGRLCKFEIQEWTSKPMYRRWWEQFVQDVPVDVLEDICHQILDLYSQGKQQMPH
